Measured values published in patent publication US20130252837A1, “METHOD FOR MEASURING RESISTANCE OR SENSITIVITY TO DOCETAXEL” (Sanofi US, priority 2004, published 2013).

System: caspase-3
Assay: active caspase-3 levels, beadmates kit / Luminex
Type: cell-based, human
Conditions: 40 nM docetaxel, 48 hours, control siRNA cells
Source text: Docetaxel can cause cell death through induction of apoptosis (Kim et al., Int J Mol Med 11:799, 2003). To determine whether Pim-1 and BubR1 siRNAs could modulate a canonical apoptotic pathway in the absence and presence docetaxel, we studied activated caspase-3 levels in HCT116 cells (using a bioplex assay) (FIG. 14).
In an attempt to define the molecular basis for enhanced cell death associated with a Pim-1 knockdown, we examined the activation state of a key cellular pathway involved in cell survival, AKT. HCT116 were seeded at 4×10^5 cells/well on 6-well plates and the next day transfected with siRNAs at 16 nM using Lipofectamine 2000 (Invitrogen). After 24 hours, cells were untreated or treated with 5 and 40 nM docetaxel. Cells were lysed 24, 48 and 72 hours after docetaxel addition with ice-cold lysis buffer (50 mM HEPES buffer (PH7.4), 1% NP40, 2.5 mM EDTA, 100 mM sodium fluoride, 10 mM sodium PPI, protease inhibitor cocktail tablet (Roche), 2 mM sodium orthovanadate) and centrifuged at 12,000 g for 10 minutes. Lysates were then quantified for total protein levels using DC protein assay (BioRad).

SMILES: CC(=O)O[C@@]12CO[C@@H]1C[C@H](O)[C@@]1(C)C(=O)[C@H](O)C3=C(C)[C@@H](OC(=O)[C@H](O)[C@@H](NC(=O)OC(C)(C)C)c4ccccc4)C[C@@](O)([C@@H](OC(=O)c4ccccc4)[C@H]21)C3(C)C [docetaxel]
- caspase-3 activity in control cells: induced
